Test system: PDC 521955-158-R6-J3 spheroids, viability
Test: Anticancer human tumor 521955-158-R6-J3-PDC patient-derived pancreatic carcinoma cell line growth inhibition [TAK]
Conditions: spheroids with HUVEC and MSC; for IC50: curve of first compound; for viability, T/C: stronger effect = lower value
Outline: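 Drug combinations, each paired with TAK-243 or ipatasertib, were tested on multi-cell spheroids of 60% malignant cells, 25% HUVEC and 15% hMSC. Top concentrations were at or near the clinical Cmax (10 microM if undetermined), decreasing by half-log; viability is given as % test/control.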

[1] = second compound 0.3 µM, first compound 0.0316 µM
[2] = second compound 0.3 µM, first compound 0.1 µM
[3] = second compound 0.3 µM, first compound 0.316 µM
[4] = second compound 0.3 µM, first compound 1 µM
[5] = second compound 0.3 µM, first compound 3.16 µM
[6] = second compound 0.3 µM, first compound 10 µM
[7] = second compound 0.949 µM, first compound 0.0316 µM
[8] = second compound 0.949 µM, first compound 0.1 µM
[9] = second compound 0.949 µM, first compound 0.316 µM
[10] = second compound 0.949 µM, first compound 1 µM
[11] = second compound 0.949 µM, first compound 3.16 µM
[12] = second compound 0.949 µM, first compound 10 µM
[13] = second compound 3 µM, first compound 0.0316 µM
[14] = second compound 3 µM, first compound 0.1 µM
[15] = second compound 3 µM, first compound 0.316 µM
[16] = second compound 3 µM, first compound 1 µM
[17] = second compound 3 µM, first compound 3.16 µM
[18] = second compound 3 µM, first compound 10 µM
[19] = second compound 9.49 µM, first compound 0.0316 µM
[20] = second compound 9.49 µM, first compound 0.1 µM
[21] = second compound 9.49 µM, first compound 0.316 µM
[22] = second compound 9.49 µM, first compound 1 µM
[23] = second compound 9.49 µM, first compound 3.16 µM
[24] = second compound 9.49 µM, first compound 10 µM
[25] = second compound 30 µM, first compound 0.0316 µM
[26] = second compound 30 µM, first compound 0.1 µM
[27] = second compound 30 µM, first compound 0.316 µM
[28] = second compound 30 µM, first compound 1 µM
[29] = second compound 30 µM, first compound 3.16 µM
[30] = second compound 30 µM, first compound 10 µM
[31] = second compound 0.3 µM, first compound 0.000316 µM
[32] = second compound 0.3 µM, first compound 0.001 µM
[33] = second compound 0.3 µM, first compound 0.00316 µM
[34] = second compound 0.3 µM, first compound 0.01 µM
[35] = second compound 0.949 µM, first compound 0.000316 µM
[36] = second compound 0.949 µM, first compound 0.001 µM
[37] = second compound 0.949 µM, first compound 0.00316 µM
[38] = second compound 0.949 µM, first compound 0.01 µM
[39] = second compound 3 µM, first compound 0.000316 µM
[40] = second compound 3 µM, first compound 0.001 µM
[41] = second compound 3 µM, first compound 0.00316 µM
[42] = second compound 3 µM, first compound 0.01 µM
[43] = second compound 9.49 µM, first compound 0.000316 µM
[44] = second compound 9.49 µM, first compound 0.001 µM
[45] = second compound 9.49 µM, first compound 0.00316 µM
[46] = second compound 9.49 µM, first compound 0.01 µM
[47] = second compound 30 µM, first compound 0.000316 µM
[48] = second compound 30 µM, first compound 0.001 µM
[49] = second compound 30 µM, first compound 0.00316 µM
[50] = second compound 30 µM, first compound 0.01 µM
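Further: spheroids exposed to drugs for 7 days before readout.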
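Wherever viability, T/C is given: 100% = DMSO vehicle control viability.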

CC(C)(C)c1nc(-c2cccc(NS(=O)(=O)c3c(F)cccc3F)c2F)c(-c2ccnc(N)n2)s1 + CC(C)NCC(C(=O)N1CCN(c2ncnc3c2C(C)CC3O)CC1)c1ccc(Cl)cc1
IC50 (second compound 0.3 µM): > 10 µM | IC50 (second compound 0.949 µM): > 10 µM | IC50 (second compound 3 µM): > 10 µM | IC50 (second compound 9.49 µM): > 10 µM | IC50 (second compound 30 µM): > 10 µM | viability, T/C [1]: 104% | viability, T/C [2]: 128% | viability, T/C [3]: 136% | viability, T/C [4]: 129% | viability, T/C [5]: 107% | viability, T/C [6]: 107% | viability, T/C [7]: 98.7% | viability, T/C [8]: 123% | viability, T/C [9]: 136% | viability, T/C [10]: 129% | viability, T/C [11]: 105% | viability, T/C [12]: 85.8% | viability, T/C [13]: 91.9% | viability, T/C [14]: 110% | viability, T/C [15]: 117% | viability, T/C [16]: 119% | viability, T/C [17]: 100% | viability, T/C [18]: 73.8% | viability, T/C [19]: 84.2% | viability, T/C [20]: 97.4% | viability, T/C [21]: 118% | viability, T/C [22]: 119% | viability, T/C [23]: 94.8% | viability, T/C [24]: 65% | viability, T/C [25]: 87.9% | viability, T/C [26]: 83.5% | viability, T/C [27]: 95.5% | viability, T/C [28]: 83.8% | viability, T/C [29]: 73.2% | viability, T/C [30]: 68.6%

CC(C)CC(NC(=O)CNC(=O)c1cc(Cl)ccc1Cl)B1OC(=O)CC(CC(=O)O)(C(=O)O)O1 (stereo not given) + CC(C)NCC(C(=O)N1CCN(c2ncnc3c2C(C)CC3O)CC1)c1ccc(Cl)cc1
IC50 (second compound 0.3 µM): 0.0559 µM | IC50 (second compound 0.949 µM): 0.0543 µM | IC50 (second compound 3 µM): 0.0491 µM | IC50 (second compound 9.49 µM): 0.0418 µM | IC50 (second compound 30 µM): 0.0336 µM | viability, T/C [31]: 86.8% | viability, T/C [32]: 92.5% | viability, T/C [33]: 106% | viability, T/C [34]: 97.8% | viability, T/C [1]: 92.9% | viability, T/C [2]: 6.28% | viability, T/C [35]: 84.3% | viability, T/C [36]: 93.8% | viability, T/C [37]: 97.9% | viability, T/C [38]: 100% | viability, T/C [7]: 89.1% | viability, T/C [8]: 5.88% | viability, T/C [39]: 86.3% | viability, T/C [40]: 90.7% | viability, T/C [41]: 92.6% | viability, T/C [42]: 104% | viability, T/C [13]: 78.7% | viability, T/C [14]: 3.93% | viability, T/C [43]: 92.7% | viability, T/C [44]: 92.5% | viability, T/C [45]: 96.9% | viability, T/C [46]: 98% | viability, T/C [19]: 65% | viability, T/C [20]: 3.75% | viability, T/C [47]: 82.3% | viability, T/C [48]: 85.2% | viability, T/C [49]: 85% | viability, T/C [50]: 99.5% | viability, T/C [25]: 52.7% | viability, T/C [26]: 2.76%

CC(C)n1nc(-c2ccc3oc(N)nc3c2)c2c(N)ncnc21 + CC(C)NCC(C(=O)N1CCN(c2ncnc3c2C(C)CC3O)CC1)c1ccc(Cl)cc1
IC50 (second compound 0.3 µM): > 0.1 µM | IC50 (second compound 0.949 µM): 0.0495 µM | IC50 (second compound 3 µM): 0.024 µM | IC50 (second compound 9.49 µM): 0.0163 µM | IC50 (second compound 30 µM): 0.00644 µM | viability, T/C [31]: 83.2% | viability, T/C [32]: 85% | viability, T/C [33]: 87.1% | viability, T/C [34]: 80.5% | viability, T/C [1]: 70.3% | viability, T/C [2]: 54.1% | viability, T/C [35]: 70.3% | viability, T/C [36]: 74.7% | viability, T/C [37]: 71.9% | viability, T/C [38]: 77% | viability, T/C [7]: 56.3% | viability, T/C [8]: 40.2% | viability, T/C [39]: 75.6% | viability, T/C [40]: 76.8% | viability, T/C [41]: 70% | viability, T/C [42]: 66.8% | viability, T/C [13]: 44.6% | viability, T/C [14]: 29.8% | viability, T/C [43]: 64% | viability, T/C [44]: 67.3% | viability, T/C [45]: 73.9% | viability, T/C [46]: 55% | viability, T/C [19]: 40.3% | viability, T/C [20]: 26.4% | viability, T/C [47]: 63.2% | viability, T/C [48]: 62.5% | viability, T/C [49]: 54.5% | viability, T/C [50]: 47.4% | viability, T/C [25]: 33.4% | viability, T/C [26]: 23.9%

CCCS(=O)(=O)Nc1ccc(F)c(C(=O)c2c[nH]c3ncc(-c4ccc(Cl)cc4)cc23)c1F + CC(C)NCC(C(=O)N1CCN(c2ncnc3c2C(C)CC3O)CC1)c1ccc(Cl)cc1
IC50 (second compound 0.3 µM): > 100 µM | IC50 (second compound 0.949 µM): > 100 µM | IC50 (second compound 3 µM): 64 µM | IC50 (second compound 9.49 µM): 60.1 µM | IC50 (second compound 30 µM): 21.8 µM | viability, T/C [3]: 143% | viability, T/C [4]: 89.8% | viability, T/C [5]: 96.1% | viability, T/C [6]: 92.2% | viability, T/C (second compound 0.3 µM, first compound 31.6 µM): 79.8% | viability, T/C (second compound 0.3 µM, first compound 100 µM): 176% | viability, T/C [9]: 98.1% | viability, T/C [10]: 108% | viability, T/C [11]: 80.6% | viability, T/C [12]: 128% | viability, T/C (second compound 0.949 µM, first compound 31.6 µM): 79.5% | viability, T/C (second compound 0.949 µM, first compound 100 µM): 159% | viability, T/C [15]: 93.3% | viability, T/C [16]: 97.5% | viability, T/C [17]: 81% | viability, T/C [18]: 97.4% | viability, T/C (second compound 3 µM, first compound 31.6 µM): 66.6% | viability, T/C (second compound 3 µM, first compound 100 µM): 39.5% | viability, T/C [21]: 94.8% | viability, T/C [22]: 98.5% | viability, T/C [23]: 78.5% | viability, T/C [24]: 88.9% | viability, T/C (second compound 9.49 µM, first compound 31.6 µM): 87.4% | viability, T/C (second compound 9.49 µM, first compound 100 µM): 20.4% | viability, T/C [27]: 106% | viability, T/C [28]: 108% | viability, T/C [29]: 132% | viability, T/C [30]: 99.8% | viability, T/C (second compound 30 µM, first compound 31.6 µM): 20.2% | viability, T/C (second compound 30 µM, first compound 100 µM): 7.85%

From PubChem BioAssay AID2060350 (Molecular Pharmacology Branch, DTP, NCI, 2025)
